Source: the supplement of paper PMC13380429

Legend:
Conditions in all cases: 72 h
Caco-2 [1] = assay: drug sensitivity score (DSS) for viability; higher = more toxic; extreme values may be limits of the assay
U2OS [2] = assay: as above
HepG2 [3] = assay: as above
Calu-3 [4] = assay: as above
Vero E6 [5] = assay: as above
Caco-2 [6] = assay: relative viability EC50 (midpoint between 100% and the lowest measured viability); higher = less toxic
U2OS [7] = assay: as above
HepG2 [8] = assay: as above
Calu-3 [9] = assay: as above
Vero E6 [10] = assay: as above
Caco-2 [11] = assay: cell viability relative to DMSO; higher = less toxic
U2OS [12] = assay: as above
HepG2 [13] = assay: as above
Calu-3 [14] = assay: as above
Vero E6 [15] = assay: as above

SMILES | drug sensitivity score (Caco-2 [1]) | drug sensitivity score (U2OS [2]) | drug sensitivity score (HepG2 [3]) | drug sensitivity score (Calu-3 [4]) | drug sensitivity score (Vero E6 [5]) | relative viability EC50 (Caco-2 [6]) [µM] | relative viability EC50 (U2OS [7]) [µM] | relative viability EC50 (HepG2 [8]) [µM] | relative viability EC50 (Calu-3 [9]) [µM] | relative viability EC50 (Vero E6 [10]) [µM] | cell viability (Caco-2 [11]; 1 nM) [%] | cell viability (Caco-2 [11]; 10 nM) [%] | cell viability (Caco-2 [11]; 100 nM) [%] | cell viability (Caco-2 [11]; 1000 nM) [%] | cell viability (Caco-2 [11]; 10000 nM) [%] | cell viability (U2OS [12]; 1 nM) [%] | cell viability (U2OS [12]; 10 nM) [%] | cell viability (U2OS [12]; 100 nM) [%] | cell viability (U2OS [12]; 1000 nM) [%] | cell viability (U2OS [12]; 10000 nM) [%] | cell viability (HepG2 [13]; 1 nM) [%] | cell viability (HepG2 [13]; 10 nM) [%] | cell viability (HepG2 [13]; 100 nM) [%] | cell viability (HepG2 [13]; 1000 nM) [%] | cell viability (HepG2 [13]; 10000 nM) [%] | cell viability (Calu-3 [14]; 1 nM) [%] | cell viability (Calu-3 [14]; 10 nM) [%] | cell viability (Calu-3 [14]; 100 nM) [%] | cell viability (Calu-3 [14]; 1000 nM) [%] | cell viability (Calu-3 [14]; 10000 nM) [%] | cell viability (Vero E6 [15]; 1 nM) [%] | cell viability (Vero E6 [15]; 10 nM) [%] | cell viability (Vero E6 [15]; 100 nM) [%] | cell viability (Vero E6 [15]; 1000 nM) [%] | cell viability (Vero E6 [15]; 10000 nM) [%]
CC(C)(F)C[C@H](N[C@@H](c1ccc(-c2ccc(S(C)(=O)=O)cc2)cc1)C(F)(F)F)C(=O)NC1(C#N)CC1 [odanacatib] | 0 | 0 | 0 | 0 | 0 | > 10 | > 10 | > 10 | > 10 | > 10 | 96.1 | 99.9 | 99.1 | 94.1 | 90.4 | 103 | 108 | 93.3 | 102 | 94.8 | 110 | 104 | 99.4 | 101 | 94.1 | 98.3 | 97.1 | 100 | 115 | 98.7 | 101 | 98.8 | 99.8 | 99.4 | 106
CC(C)CCC[C@@H](C)[C@H]1CC[C@H]2[C@@H]3CCC4=CC(=NO)CC[C@]4(C)[C@H]3CC[C@]12C [olesoxime] | 0 | 0 | 0 | 0 | 0 | > 10 | > 10 | > 10 | > 10 | > 10 | 99.2 | 87.1 | 102 | 97.6 | 99.1 | 101 | 95.9 | 98 | 95.3 | 100 | 100 | 96.5 | 95.3 | 103 | 97.4 | 97.3 | 95.6 | 90.7 | 100 | 93.9 | 97.2 | 98.6 | 96.5 | 98.6 | 94.3
OCCOc1ccc(/C(=C(/CCCl)c2ccccc2)c2ccccc2)cc1 [ospemifene] | 1.7 | 0 | 0 | 0 | 0 | > 10 | > 10 | > 10 | > 10 | > 10 | 103 | 108 | 104 | 91.3 | 78 | 98.4 | 104 | 98.1 | 101 | 93.1 | 99.5 | 97 | 103 | 107 | 106 | 96.7 | 103 | 106 | 96.6 | 101 | 97.9 | 102 | 101 | 99.9 | 94.2
CCC(=O)NS(=O)(=O)c1ccc(-c2c(-c3ccccc3)noc2C)cc1 [parecoxib] | 0 | 0 | 0 | 0 | 0 | > 10 | > 10 | > 10 | > 10 | > 10 | 99.5 | 96 | 96.6 | 98.9 | 95.7 | 103 | 113 | 103 | 94.1 | 99.2 | 88.9 | 90 | 94 | 94.2 | 90.1 | 106 | 94.3 | 94.4 | 92.5 | 108 | 97.7 | 101 | 95.6 | 95.6 | 93.6
CCCCCCCCCCCCCCCCCCOP(=O)([O-])OC1CC[N+](C)(C)CC1 [perifosine] | 0 | 0 | 0 | 0.8 | 0 | > 10 | > 10 | > 10 | > 10 | > 10 | 96.4 | 90.9 | 100 | 96.5 | 106 | 98.7 | 95.2 | 103 | 95 | 99.2 | 96.2 | 96 | 97.7 | 106 | 112 | 106 | 98 | 106 | 86.8 | 95.4 | 92.7 | 98.9 | 93.6 | 96.5 | 101
C=C(C)[C@@H]1[C@H]2OC(=O)[C@@H]1[C@]1(O)C[C@H]3O[C@]34C(=O)O[C@H]2[C@]14C [picrotoxinin] | 0 | 0 | 0 | 0 | 0 | > 10 | > 10 | > 10 | > 10 | > 10 | 108 | 102 | 99.2 | 103 | 96.1 | 101 | 98.4 | 98.3 | 98.4 | 97.2 | 109 | 108 | 106 | 97.4 | 98.4 | 104 | 107 | 92.8 | 94.5 | 92.6 | 97.2 | 95.6 | 97.5 | 102 | 99.5
O=[N+]([O-])c1nccn1CC(O)CN1CCCCC1 (stereo not given) [pimonidazole] | 0 | 0 | 0 | 0 | 0 | > 10 | > 10 | > 10 | > 10 | > 10 | 94.1 | 86.5 | 100 | 87.4 | 102 | 94 | 96.4 | 102 | 95.3 | 106 | 95.8 | 111 | 94.9 | 95.4 | 108 | 93.6 | 93.2 | 99.9 | 97 | 107 | 99.1 | 98 | 94.7 | 108 | 106
CO[C@H]1[C@H](O)[C@@H](O)[C@@H](O)[C@H](O)[C@@H]1O [pinitol] | 0 | 0 | 0 | 0 | 0 | > 10 | > 10 | > 10 | > 10 | > 10 | 107 | 84.5 | 104 | 94 | 97 | 96.5 | 97.5 | 98.4 | 99.8 | 96 | 99.2 | 95.1 | 85.4 | 80 | 96.6 | 83.9 | 100 | 89.7 | 96.5 | 94.2 | 102 | 106 | 104 | 92.1 | 93.4
C[C@]12CCC(=O)C=C1C=C[C@@H]1[C@@H]2CC[C@@]2(C)[C@H]1CC[C@@]2(O)CCC(=O)O [potassium-canrenoate] | 0 | 0 | 0 | 0 | 0 | > 10 | > 10 | > 10 | > 10 | > 10 | 93.8 | 112 | 77.3 | 88.9 | 105 | 97.1 | 104 | 98.9 | 100 | 98.9 | 106 | 89.4 | 85.4 | 87.9 | 99 | 102 | 94.7 | 107 | 101 | 104 | 102 | 91.6 | 102 | 88 | 100
CC(=O)[C@H]1CC[C@H]2[C@@H]3CC=C4C[C@@H](O)CC[C@]4(C)[C@H]3CC[C@]12C [pregnenolone] | 0.3 | 0 | 0 | 0 | 0.4 | > 10 | > 10 | > 10 | > 10 | > 10 | 97.1 | 95.9 | 88.9 | 90.4 | 90.4 | 91.5 | 96.4 | 93.5 | 99.1 | 94.7 | 98.9 | 96 | 99.6 | 92.7 | 93.6 | 96.8 | 101 | 101 | 97.1 | 98.6 | 102 | 104 | 99.5 | 88.4 | 95.2
C[C@@H]1NC(C)(C)CO[C@@]1(O)c1cccc(Cl)c1 [radafaxine] | 0 | 0 | 0 | 0 | 0 | > 10 | > 10 | > 10 | > 10 | > 10 | 90.2 | 94.4 | 97.4 | 99.9 | 95 | 101 | 103 | 101 | 102 | 97.5 | 98.3 | 99.7 | 97.6 | 98.4 | 90.3 | 95.4 | 92.4 | 94.1 | 101 | 90.3 | 100 | 97.9 | 106 | 96.4 | 105
Oc1cccc(O)c1 [resorcinol] | 0 | 0 | 2.5 | 0 | 0 | > 10 | > 10 | > 10 | > 10 | > 10 | 103 | 89.8 | 95.5 | 100 | 103 | 97.6 | 93.8 | 96.2 | 96.8 | 103 | 105 | 92.9 | 90.4 | 79.2 | 89 | 97.5 | 102 | 114 | 99.2 | 103 | 103 | 96 | 97.4 | 96.5 | 107
C[C@@H](c1ccc2nccn2c1)n1nnc2ncc(-c3cnn(C)c3)nc21 [savolitinib] | 0 | 0 | 0.8 | 0 | 0 | > 10 | > 10 | > 10 | > 10 | > 10 | 103 | 92.9 | 95.4 | 100 | 91.8 | 101 | 103 | 98.9 | 96.9 | 95.8 | 99.5 | 96.2 | 96.8 | 89.4 | 83.4 | 99.3 | 85.2 | 94.4 | 95.5 | 95.3 | 102 | 102 | 96.5 | 98.9 | 97.4
Cc1cc(S(=O)(=O)O)c2c(C)ccc(C(C)C)cc1-2 [sodium-gualenate] | 0 | 0 | 0 | 0 | 0 | > 10 | > 10 | > 10 | > 10 | > 10 | 90.8 | 95.5 | 92.2 | 92.8 | 89.3 | 92.8 | 95.2 | 98 | 101 | 104 | 97.3 | 87.1 | 103 | 94.6 | 108 | 109 | 91.8 | 112 | 103 | 100 | 98 | 106 | 101 | 93.2 | 92.8
